Assay [1] is described as follows: Inhibitory concentration required to inhibit aggregation of 50 uM beta-amyloid 1-40 peptide by 50% over 24 hr r incubation, 37 degree C. The format is functional.
The nature of assay [2]: Critical micelle concentration determined by micellar/surfactant based mechanism. The format is functional.

For orientation: IC50 means the concentration that inhibits the measured activity by half.

`CCN(CC)CCCOc1ccc(-c2oc3ccccc3c2C(=O)c2ccc(C)cc2)cc1`: in assay [1], the IC50 was 20 µM. Moreover, the Critical micelle concentration in assay [2] worked out at 225 µM.

As to `CCN(CC)CCCOc1ccc(-c2cc3ccccc3o2)cc1`, the IC50 in assay [1] came to 78 µM. This molecule returned a Critical micelle concentration in assay [2] of 220 µM.

The record behind these values is ChEMBL document CHEMBL1133794, “3-p-Toluoyl-2-[4'-(3-diethylaminopropoxy)-phenyl]-benzofuran and 2-[4'-(3-diethylaminopropoxy)-phenyl]-benzofuran do not act as surfactants or micelles when inhibiting the aggregation of beta-amyloid peptide” (Bioorg Med Chem Lett, 2001).
